Laboratory results: patent US7371734B2, “Oligonucleotide compositions and their use for the modulation of immune responses” (Bioniche Life Sciences Inc., priority 2002, dated 2008)
Marks after values point to notes of the source that are not given here.

Assays:
Type in all cases: cell-based
Human dendritic cells [1] = assay: CD40 levels at the DC cell surface (flow cytometry); details: 100 μg, 48 hours
Method: (§1) Human dendritic cells were obtained from Clonetics (San Diego, Calif., USA) and were cultured in the medium recommended by Clonetics. DC were obtained from three different individuals (see Table 1). Major histocompatability typing was performed on each of these individuals and several of the HLA (human leukocyte antigens) types are shown.
DC from individuals B and C were seeded in 1.0 ml at 1.0×10^5 cells/ml in 6-well flat-bottomed tissue culture plates for 48 hours with 100 μg of 6 base N1A, N1B, N2A, N2B, N3A, N3B, N4A, N4B, N5A, N5B, N6A, N6B, N7A or N7B polynucleotides. The level of CD40 at the cell surface was determined after 48 hours of incubation by flow cytometry (FACSCalibur system) using a FITC-conjugated monoclonal antibody directed to CD40 and analyzed by CELLQuest Pro (all from Becton Dickinson). Results are expressed as the percentage of CD40^hi DC following treatment. The term “CD40^hi” refers to a population of cells identified by flow cytometry as having higher than baseline expression of CD40.

Human dendritic cells [2] = assay: Endocytosis of FITC-dextran by DC; details: DC from individual B, 100 μg, 24 hours, untreated control = 100
Method: as §1
DC from individual B were seeded in 1.0 ml at 1.0×10^5 cells/ml in 6-well flat-bottomed tissue culture plates for 24 hours with 1 mg/ml of FITC-dextran (20 kDa; Sigma-Aldrich) in the absence or presence of 100 μg of 6 base N2A, N2B, N3A, N3B, N5A, N5B, and N6B polynucleotides at 4° C. (control cell surface binding of FITC-dextran) and 37° C. (to assess endocytosis). Cells were washed three times with ice-cold phosphate buffered saline and analyzed by flow cytometry using CELLQuest Pro. Results are expressed as relative endocytic rate (normalized Δ Mean Fluorescence Value (Δ MFV)). Δ MFV=MFV of DC exposed to FITC-dextran at 37° C.−MFV of DC exposed to FITC-dextran at 4° C. Δ MFV=(ΔMFVsequence/ΔMFVcontrol)×100.

Human dendritic cells [3] = assay: CD86 levels at the DC cell surface (flow cytometry); details: 100 μg, 48 hours
Method: as §1
(§2) DC from individuals B and C were seeded in 1.0 ml at 1.0×10^5 cells/ml in 6-well flat-bottomed tissue culture plates for 48 hours with 100 μg of 6 base N1A, N1B, N2A, N2B, N3A, N3B, N4A, N4B, N5A, N5B, N6A, N6B, N7A or N7B polynucleotides. The level of CD86 at the cell surface was determined after 48 hours of incubation by flow cytometry using a PE-conjugated monoclonal antibody directed to CD86 (Serotec) and analyzed by CELLQuest Pro. Results are expressed as the percentage of CD86^hi DC following treatment.

Human dendritic cells [4] = assay: MHC-II levels at the DC cell surface (flow cytometry); details: DC from individual B; 100 μg, 48 hours
Method: as §1
as §2, with “individual” for “individuals”, “B” for “B and C”, “N3B,” for “N3B, N4A, N4B,”, “MHC II” for “CD86”, “FITC-conjugated” for “PE-conjugated”, “MHC II^hi” for “CD86^hi”

Human dendritic cells [5] = assay: CD80 levels at the DC cell surface (flow cytometry); details: 100 μg, 48 hours
Method: as §1
as §2, with “CD80” for “CD86”, “FITC-conjugated” for “PE-conjugated”, “CD80 (Serotec, Oxford, U.K.)” for “CD86 (Serotec)”, “CELLQuest.” for “CELLQuest Pro.”, “CD80^hi” for “CD86^hi”

Human dendritic cells [6] = assay: Induction of IL-12 production by DC (ELISA); details: 100 μg, 48 hours
Method: as §1
DC were seeded in 1.0 ml at 1.0×10^5 cells/ml in 6-well flat-bottomed tissue culture plates for 48 hours with 100 μg of 6 base N1A, N1B, N2A, N2B, N3A, N3B, N4A, N4B, N5A, N5B, N6A, N6B, N7A or N7B polynucleotides. Production of IL-12 was determined in 100 μl of culture supernatant using a commercial ELISA (BioSource) after 48 hours of incubation. Results are expressed as the “fold” (x) increase in IL-12 production by treated DC compared to control cells.

Human dendritic cells [7] = assay: Induction of IL-1beta production by DC (ELISA); details: 100 μg, 48 hours
Method: as §1
DC were seeded in 1.0 ml at 1.0×10^5 cells/ml in 6-well flat-bottomed tissue culture plates for 48 hours with 100 μg of 6 base N1A, N1B, N2A, N2B, N3A, N3B, N4A, N4B, N5A, N5B, N6A, N6B, N7A or N7B polynucleotides. Production of IL-1beta was determined in 100 μl of culture supernatant using a commercial ELISA (BioSource, Camarillo, Calif., USA) after 48 hours of incubation. Results are expressed as the “fold” (x) increase in IL-1beta production by treated DC compared to control cells.

Human dendritic cells [8] = assay: Increase in cell size and granularity of DC (flow cytometry); details: 100 μg polynucleotide, 48 hours
Method: as §1
DC were seeded in 1.0 ml at 1.0×10^5 cells/ml in 6-well flat-bottomed tissue culture plates for 48 hours with 100 μg of 6 base N1A, N1B, N2A, N2B, N3A, N3B, N4A, N4B, N5A, N5B, N6A, N6B, N7A or N7B polynucleotides. Cell size (FCS: forward side scatter) and granularity (S SC: side light scatter) were determined by flow cytometry using a FACSCalibur and analyzed using the CELLQuest Pro software (both from Becton-Dickinson, San Diego, Calif., USA). Percentage of DC showing a FCS>500 units and a SSC>400 units have been determined after treatment with 3-OH, 5-OH polynucleotides for DC isolated from three different individuals.

Human dendritic cells [9] = assay: Induction of IFN-gamma production by DC (ELISA); details: 100 μg, 48 hours
Method: as §1
DC were seeded in 1.0 ml at 1.0×10^5 cells/ml in 6-well flat-bottomed tissue culture plates for 48 hours with 100 μg of6 base N1A, N1B, N2A, N2B, N3A, N3B, N4A, N4B, N5A, N5B, N6A, N6B, N7A or N7B polynucleotides. Production of IFN-gamma was determined in 100 μl of culture supernatant using a commercial ELISA (BioSource) after 48 hours of incubation. Results are expressed as the “fold” (x) increase in IFN-gamma production by treated DC compared to control cells.

In the case of 5′GGGGGG3′ [N5A] (unmodified DNA), the “The percentage of CD40^hi DC following treatment” value (Human dendritic cells [1]; DC from individual B) was 40** %, the “The percentage of CD40^hi DC following treatment” value (Human dendritic cells [1]; DC from individual C) was 30** % and the “Relative endocytic rate (normalized Δ MFV)” value (Human dendritic cells [2]) was 209. For the same substance, the “The percentage of CD86^hi DC following treatment” value (Human dendritic cells [3]; DC from individual B) was 20%, the “The percentage of CD86^hi DC following treatment” value (Human dendritic cells [3]; DC from individual C) was 16% and the “The percentage of MHC-II^hi DC following treatment” value (Human dendritic cells [4]) was 19%. For the same substance, the “The percentage of CD80^hi DC following treatment” value (Human dendritic cells [5]; DC from individual B) was 18%, the “The percentage of CD80^hi DC following treatment” value (Human dendritic cells [5]; DC from individual C) was 14% and the “IL-12 production by DC (fold increase compared to untreated DC)” value (Human dendritic cells [6]; DC isolated from individual A) was 0.9 fold. For the same substance, the “IL-12 production by DC (fold increase compared to untreated DC)” value (Human dendritic cells [6]; DC isolated from individual B) was 1.1 fold, the “IL-12 production by DC (fold increase compared to untreated DC)” value (Human dendritic cells [6]; DC isolated from individual C) was 1.0 fold and the “IL-1beta production by DC (fold increase compared to untreated DC)” value (Human dendritic cells [7]; DC isolated from individual A) was 1.1 fold. For the same substance, the “IL-1beta production by DC (fold increase compared to untreated DC)” value (Human dendritic cells [7]; DC isolated from individual B) was 1.1 fold, the “IL-1beta production by DC (fold increase compared to untreated DC)” value (Human dendritic cells [7]; DC isolated from individual C) was 1.0 fold and the “Percentage of DC showing a FCS > 500 units and a SSC > 400 units” value (Human dendritic cells [8]; DC isolated from individual A) was 10%. The “Percentage of DC showing a FCS > 500 units and a SSC > 400 units” value (Human dendritic cells [8]; DC isolated from individual B) was 19%, the “Percentage of DC showing a FCS > 500 units and a SSC > 400 units” value (Human dendritic cells [8]; DC isolated from individual C) was 36% and the “IFN-gamma production by DC (fold increase compared to untreated DC)” value (Human dendritic cells [9]; DC isolated from individual A) was 1.1 fold. For the same substance, the “IFN-gamma production by DC (fold increase compared to untreated DC)” value (Human dendritic cells [9]; DC isolated from individual B) was 1.1 fold and the “IFN-gamma production by DC (fold increase compared to untreated DC)” value (Human dendritic cells [9]; DC isolated from individual C) was 1.0 fold.

In the case of 5′GGGGGG3′ [N5B], the “The percentage of CD40^hi DC following treatment” value (Human dendritic cells [1]; DC from individual B) was 21%, the “The percentage of CD40^hi DC following treatment” value (Human dendritic cells [1]; DC from individual C) was 15% and the “Relative endocytic rate (normalized Δ MFV)” value (Human dendritic cells [2]) was 151. The “The percentage of CD86^hi DC following treatment” value (Human dendritic cells [3]; DC from individual B) was 26** %, the “The percentage of CD86^hi DC following treatment” value (Human dendritic cells [3]; DC from individual C) was 31** % and the “The percentage of MHC-II^hi DC following treatment” value (Human dendritic cells [4]) was 18%. For the same substance, the “The percentage of CD80^hi DC following treatment” value (Human dendritic cells [5]; DC from individual B) was 3%, the “The percentage of CD80^hi DC following treatment” value (Human dendritic cells [5]; DC from individual C) was 10% and the “IL-12 production by DC (fold increase compared to untreated DC)” value (Human dendritic cells [6]; DC isolated from individual A) was 7.5 fold. The “IL-12 production by DC (fold increase compared to untreated DC)” value (Human dendritic cells [6]; DC isolated from individual B) was 17.8 fold, the “IL-12 production by DC (fold increase compared to untreated DC)” value (Human dendritic cells [6]; DC isolated from individual C) was 15.0 fold and the “IL-1beta production by DC (fold increase compared to untreated DC)” value (Human dendritic cells [7]; DC isolated from individual A) was 5.0 fold. The “IL-1beta production by DC (fold increase compared to untreated DC)” value (Human dendritic cells [7]; DC isolated from individual B) was 7.5 fold, the “IL-1beta production by DC (fold increase compared to untreated DC)” value (Human dendritic cells [7]; DC isolated from individual C) was 3.7 fold and the “Percentage of DC showing a FCS > 500 units and a SSC > 400 units” value (Human dendritic cells [8]; DC isolated from individual A) was 53%. The “Percentage of DC showing a FCS > 500 units and a SSC > 400 units” value (Human dendritic cells [8]; DC isolated from individual B) was 16%, the “Percentage of DC showing a FCS > 500 units and a SSC > 400 units” value (Human dendritic cells [8]; DC isolated from individual C) was 23% and the “IFN-gamma production by DC (fold increase compared to untreated DC)” value (Human dendritic cells [9]; DC isolated from individual A) was 3.5 fold. For the same substance, the “IFN-gamma production by DC (fold increase compared to untreated DC)” value (Human dendritic cells [9]; DC isolated from individual B) was 5.0 fold and the “IFN-gamma production by DC (fold increase compared to untreated DC)” value (Human dendritic cells [9]; DC isolated from individual C) was 1.5 fold.
